Laboratory results published in patent US20240115557A1, “INHIBITORS OF RNA-GUIDED NUCLEASES AND USES THEREOF” (The Brigham and Women's Hospital, Inc., priority 2022, published 2024).
Numbered stars: 1 amine (or outer) side, 2 acyl side, 3 side chain; on linkers, the order of the positions; unused ones are H or OH. Bridge positions count the residues as written; N and C are the ends. Square brackets hold non-standard residues; d marks the D form. Peptide text beside a SMILES is read from it. I, II: the chains in the order shown. Actinocin(9to1) = Cc1c2oc3c(C)ccc(C(=O)[*:1])c3nc-2c(C(=O)[*:2])c(N)c1=O; NMeV = CN[C@H](C(=O)O)C(C)C; Sar = CNCC(=O)O

Target: SpCas9 (Streptococcus pyogenes serotype M1, UniProt Q99ZW2)
Test: eGFP disruption assay, SpCas9, U2OS.eGFP.PEST cells
Type: cell-based
Settings: for Normalized Z rep1 / Z score Rep1: replicate 1; for SpCas9 eGFP disruption Rep1: replicate 1, raw readout; for Normalized Z rep2 / Z socre Rep2: replicate 2; for SpCas9 eGFP disruption Rep2: replicate 2, raw readout
Source text: In some embodiments, the secondary assay may be an EGFP disruption assay. In such assay, a quantitative human cell-based reporter assay that enables rapid quantitation of targeted nuclease activities is used to characterize off-target cleavage of Cas9-based RNA guided endonucleases. In this assay, the activities of nucleases targeted to a single integrated EGFP reporter gene can be quantified by assessing loss of fluorescence signal in human U2OS.EGFP cells caused by inactivating frameshift insertion/deletion (indel) mutations introduced by error prone non-homologous end-joining (NHEJ) repair of nuclease-induced double-stranded breaks (DSBs).
In one protocol, U2OS.EGFP cells harboring a single integrated copy of an EGFP-PEST fusion gene are cultured (see e.g., Reyon et al., Nat Biotech 30, 460-465 (2012), which is herein incorporated by reference in its entirety). For transfections, 200,000 cells are Nucleofected with gRNA expression plasmid and pJDS246 together with 30 ng of a Td-tomato-encoding plasmid using the SE Cell Line 4D-Nucleofector™ X Kit (Lonza) according to the manufacturer's protocol. Cells are analyzed 2 days post-transfection using a BD LSRII flow cytometer. Transfections for optimizing gRNA/Cas9 plasmid concentration are performed in triplicate and all other transfections are performed in duplicate. PCR amplification is used for sequence verification of endogenous human genomic sites. PCR reactions are performed using Phusion Hot Start II high-fidelity DNA polymerase (NEB). Loci are amplified using touchdown PCR (98° C., 10 s; 72-62° C., −1° C./cycle, 15s; 72° C., 30 s] 10 cycles, [98° C., 10s; 62° C., 15s; 72° C., 30 s] 25 cycles). Alternatively, PCR for other targets is performed with 35 cycles at a constant annealing temperature of 68° C. or 72° C., and 3% DMSO or IM betaine, if necessary. PCR products are analyzed on a QIAXCEL capillary electrophoresis system to verify both size and purity. Validated products are treated with ExoSap-IT (Affymetrix) and sequenced by the Sanger method (MGH DNA Sequencing Core) to verify each target site.
Primary and secondary screening. The primary screen assayed a selection of unique chemical scaffolds derived from commercially available compounds and known bioactive molecular libraries (Table 7). Auto-fluorescent compounds were removed by a counter screen. Overall, the CAA was used to assay 122,409 small molecules with over 2,500 unique chemical scaffolds (FIG. 64F, Table 7). Of these compounds, 547 were selected as hits (Z score >3 in both replicates) for testing in orthogonal cell-based secondary assays. Hits were tested in duplicate in an eGFP disruption assay, wherein U2OS.eGFP.PEST cells^33 transfected with SpCas9 plasmid and eGFP-targeting gRNA plasmid were incubated with 20 μM of the compounds. In this assay, any compound that inhibited SpCas9 would rescue the loss of eGFP fluorescence. Here, toxic and auto-fluorescent compounds with a high GFP signal in cells were removed as false positives. […] Next, Applicants tested the 15 compounds in a luminescence-based gain-of-signal HiBiT knock-in assay, which involves SpCas9-mediated homology-directed tagging of GAPDH with a short peptide that luminesces upon complementation with a subunit derived from nanoluciferase.^34 Complementarily, the eGFP-disruption assay is fluorescence-based and involves error-prone DNA repair. As a counter-screen to remove false positives caused by cell death (viability <80%), the cell viability was measured after incubation.
For SAR studies and dose-response studies, 300,000 U2OS.eGFP.PEST cells were nucleofected with 300 ng of SpCas9 plasmid (Addgene #43861) and 30 ng of eGFP-targeting gRNA plasmid (Addgene #47511)^33 using SE Cell Line 4D-Nucleofector X Kit (Lonza) following the pulse program of DN-100. For RNP-based genome editing, 10 pmol of SpCas9 (GenScript #Z03385) and 12 pmol of gRNA were mixed and incubated for 5 min. […]

Chain of SpCas9 (Q99ZW2 whole entry): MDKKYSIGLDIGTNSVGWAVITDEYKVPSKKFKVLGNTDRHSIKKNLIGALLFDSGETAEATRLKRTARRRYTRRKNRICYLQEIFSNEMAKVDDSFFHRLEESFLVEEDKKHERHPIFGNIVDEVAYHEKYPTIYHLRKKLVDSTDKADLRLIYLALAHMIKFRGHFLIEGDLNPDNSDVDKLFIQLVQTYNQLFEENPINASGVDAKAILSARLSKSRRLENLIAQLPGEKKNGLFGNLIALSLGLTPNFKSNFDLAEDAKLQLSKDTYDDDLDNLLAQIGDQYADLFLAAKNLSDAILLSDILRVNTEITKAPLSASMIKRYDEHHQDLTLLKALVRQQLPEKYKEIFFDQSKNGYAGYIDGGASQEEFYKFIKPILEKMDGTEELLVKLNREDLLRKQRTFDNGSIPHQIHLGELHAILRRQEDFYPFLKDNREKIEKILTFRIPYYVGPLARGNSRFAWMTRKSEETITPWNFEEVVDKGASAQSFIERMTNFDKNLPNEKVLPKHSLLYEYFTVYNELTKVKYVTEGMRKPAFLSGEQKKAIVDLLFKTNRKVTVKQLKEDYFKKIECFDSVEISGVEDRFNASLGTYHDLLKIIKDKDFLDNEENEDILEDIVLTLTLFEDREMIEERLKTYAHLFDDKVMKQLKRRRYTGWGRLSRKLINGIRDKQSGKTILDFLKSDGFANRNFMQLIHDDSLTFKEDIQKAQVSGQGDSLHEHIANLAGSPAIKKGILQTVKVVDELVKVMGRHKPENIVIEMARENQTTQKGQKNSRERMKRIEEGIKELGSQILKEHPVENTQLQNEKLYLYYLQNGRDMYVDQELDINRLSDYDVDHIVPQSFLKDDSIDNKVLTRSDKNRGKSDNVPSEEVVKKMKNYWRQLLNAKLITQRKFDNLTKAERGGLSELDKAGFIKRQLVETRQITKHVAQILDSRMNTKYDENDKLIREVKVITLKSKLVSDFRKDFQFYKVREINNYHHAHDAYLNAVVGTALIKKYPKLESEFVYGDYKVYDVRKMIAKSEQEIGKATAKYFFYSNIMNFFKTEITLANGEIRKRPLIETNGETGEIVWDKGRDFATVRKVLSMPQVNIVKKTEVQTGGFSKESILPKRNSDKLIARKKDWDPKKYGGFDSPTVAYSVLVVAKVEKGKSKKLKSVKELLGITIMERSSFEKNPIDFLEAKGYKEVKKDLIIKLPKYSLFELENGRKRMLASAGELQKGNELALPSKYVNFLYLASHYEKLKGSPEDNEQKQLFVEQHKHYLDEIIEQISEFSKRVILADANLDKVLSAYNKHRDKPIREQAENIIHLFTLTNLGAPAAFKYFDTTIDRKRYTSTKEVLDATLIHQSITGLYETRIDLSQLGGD

SMILES | Normalized Z rep1 | Z score Rep1 | SpCas9 eGFP disruption Rep1 | Normalized Z rep2 | Z socre Rep2 | SpCas9 eGFP disruption Rep2
CCCCNC(=O)CN1CCN(c2ccc(C(=O)O)cc2NC(=O)c2ccccc2Cl)CC1 [Compound F086-0029] | −0.30 | −2.20 | 59.751 | −0.05 | −0.46 | 61.703
CCCCN(CC)C(=O)C1CCCN(c2ccc(-c3ccccc3C)nn2)C1 (stereo not drawn) [Compound F305-0129] | −0.32 | −2.35 | 59.262 | −0.38 | −3.50 | 52.541
Cc1cc(Sc2ccccc2NC(=O)c2cccc(F)c2)n2ncnc2n1 [Compound F518-0008] | −0.22 | −2.00 | 59.029 | −0.20 | −3.02 | 61.293
Cc1cccc(C(=O)Nc2ccccc2Sc2cc(C)nc3ncnn23)c1 [Compound F518-0014] | −0.36 | −3.28 | 55.407 | −0.34 | −5.07 | 57.92
CCC(=O)Nc1ccccc1Sc1cc(C)nc2ncnn12 [Compound F518-0049] | −0.09 | −0.86 | 62.276 | −0.23 | −3.42 | 60.623
O=C(O)c1cc(N2CCCC2)ccc1NC(=O)C1CCCC1 [Compound F685-1588] | −0.26 | −2.44 | 57.803 | −0.23 | −3.36 | 60.73
COc1ccc(S(=O)(=O)CCC(=O)Nc2nc(-c3ccncc3)cs2)cc1 [Cpd4] | −0.26 | −3.70 | 48.322 | −0.20 | −4.05 | 47.796
CC(C)(C)OC(=O)NCCOc1ccc(S(=O)(=O)CCC(=O)Nc2nc(-c3ccncc3)cs2)cc1 [Cpd6] | −0.10 | −1.44 | 54.15 | 0.06 | 1.16 | 57.456
N#Cc1[nH]c(=O)n(Cc2ccccc2)c1N [Cpd10] | 0.00 | 0.06 | 58.004 | 0.14 | 2.94 | 60.748
Fc1cccc(-c2nn3c(-c4ccc5ccccc5n4)nnc3s2)c1 [D727-0740] | −0.57 | −4.14 | 53.347 | −0.08 | −0.74 | 60.86
Cc1c2oc3c(C)ccc(C(=O)N[C@@H]4C(=O)N[C@H](C(C)C)C(=O)N5CCC[C@H]5C(=O)N(C)CC(=O)N(C)[C@@H](C(C)C)C(=O)O[C@@H]4C)c3nc-2c(C(=O)N[C@@H]2C(=O)N[C@H](C(C)C)C(=O)N3CCC[C@H]3C(=O)N(C)CC(=O)N(C)[C@@H](C(C)C)C(=O)O[C@@H]2C)c(N)c1=O [SAM001246846] (I: T[dV]P[Sar][NMeV] / II: T[dV]P[Sar][NMeV]; ester I:1-I:C, II:1-II:C; linker I:N-II:N via Actinocin(9to1)) | −2.59 | −16.90 | 26.655 | −2.71 | −26.02 | 24.765
